# Target: T1, angiotensin converting enzyme, extracted from rabbit lung (Oryctolagus cuniculus, UniProt P12822)
# T1 construct: extracted from rabbit lung; from tissue; host or cells: rabbit lung
# T1 sequence (P12822 34-1310): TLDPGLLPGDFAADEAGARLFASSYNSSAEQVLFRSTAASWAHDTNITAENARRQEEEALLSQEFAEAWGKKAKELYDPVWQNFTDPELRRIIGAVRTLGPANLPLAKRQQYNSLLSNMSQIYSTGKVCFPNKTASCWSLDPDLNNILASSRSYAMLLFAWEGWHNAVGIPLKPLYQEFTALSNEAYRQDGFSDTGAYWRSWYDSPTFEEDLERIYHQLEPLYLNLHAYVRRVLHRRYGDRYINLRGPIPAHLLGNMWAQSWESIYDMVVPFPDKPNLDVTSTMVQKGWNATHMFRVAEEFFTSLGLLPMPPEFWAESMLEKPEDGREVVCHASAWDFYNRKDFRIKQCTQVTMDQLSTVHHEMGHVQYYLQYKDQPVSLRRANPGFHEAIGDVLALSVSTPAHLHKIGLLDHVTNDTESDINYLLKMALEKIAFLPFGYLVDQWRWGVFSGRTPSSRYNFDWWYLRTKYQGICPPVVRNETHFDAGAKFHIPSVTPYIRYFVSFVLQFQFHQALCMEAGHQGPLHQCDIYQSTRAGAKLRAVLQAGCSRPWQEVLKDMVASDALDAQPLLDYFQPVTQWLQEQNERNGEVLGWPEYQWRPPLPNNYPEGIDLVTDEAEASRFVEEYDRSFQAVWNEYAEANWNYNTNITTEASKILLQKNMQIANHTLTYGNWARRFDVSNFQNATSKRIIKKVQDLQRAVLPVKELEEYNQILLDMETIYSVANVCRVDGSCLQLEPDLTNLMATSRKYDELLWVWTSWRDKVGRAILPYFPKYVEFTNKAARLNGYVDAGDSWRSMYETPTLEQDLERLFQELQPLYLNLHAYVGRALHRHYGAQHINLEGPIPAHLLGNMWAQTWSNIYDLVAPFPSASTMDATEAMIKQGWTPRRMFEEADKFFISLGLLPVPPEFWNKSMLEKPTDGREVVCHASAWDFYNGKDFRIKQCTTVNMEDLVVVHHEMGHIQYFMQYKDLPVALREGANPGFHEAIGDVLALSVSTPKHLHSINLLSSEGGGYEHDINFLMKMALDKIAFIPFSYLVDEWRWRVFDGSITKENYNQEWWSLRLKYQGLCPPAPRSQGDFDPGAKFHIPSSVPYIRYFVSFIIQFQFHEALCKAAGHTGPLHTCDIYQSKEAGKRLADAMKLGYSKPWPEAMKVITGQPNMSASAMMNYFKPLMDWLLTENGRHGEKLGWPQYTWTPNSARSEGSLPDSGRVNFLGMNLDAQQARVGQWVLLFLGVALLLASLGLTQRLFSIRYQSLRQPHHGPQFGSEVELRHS
# Test: in vitro inhibition of angiotensin converting enzyme (cleavage of hippuryl-histidyl-leucine)
# Type: biochemical
# Conditions: hippuryl-histidyl-leucine 2 mM; rabbit lung ACE; pH 8.3; 25 minutes at 37° C.
# Experimental: The activity of the pyrazolopyridazine derivatives of formula I in inhibiting angiotensin converting enzyme in vitro can be determined by the following test.
# The method used is based on the method of Cushman and Cheung (Biochem. Pharmacol., 20, 1637-1648) incorporating the modifications introduced by Hayakari et al. (Anal. Biochem., 84, 361-369). The substrate (hippuryl-histidyl-leucine, 2 mM) is incubated with angiotensin converting enzyme, extracted from rabbit lung, in the presence or absence of various concentrations of test substance in potassium phosphate buffer (pH 8.3; 100 mM) containing sodium chloride (300 mM) for 25 minutes at 37° C. (total […] 500 μl). The reaction is terminated by the addition of 3 ml of potassium phosphate buffer (pH 8.3; 200 mM) at 0° C. 2,4,6-Trichloro-s-triazine (3%) in 1.5 ml of dioxane is added and the mixture is agitated until the yellow chromophore has developed fully. The samples are then centrifuged to remove any precipitate which has formed. The yellow chromophore formed by the reaction of the 2,4,6-trichloro-s-triazine with free hippuric acid is measured spectrophotometrically at 382 nm. IC50 values are defined as the concentration of test substance which reduces by 50% the cleavage of hippurly-histidyl-leucine by angiotensin converting enzyme under the aforementioned conditions.
row,SMILES,IC50 [nM]
1,"CC1(CCS)C(=O)N2CCCC(C(=O)O)N2C1=O (stereo not drawn) [Compound A, Hexahydro-2-(2-mercaptoethyl)-2-methyl-1,3-dioxo-1H-pyrazolo[1,2-a]pyridazine-5-carboxylic acid]",100
2,"CC1(CCS)CN2CCCC(C(=O)O)N2C1=O (stereo not drawn) [Compound B, Hexahydro-2-(2-mercaptoethyl)-2-methyl-3-oxo-1H-pyrazolo[1,2-a]pyridazine-5-carboxylic acid]",100
3,"CCC1(CCS)C(=O)N2CC=CC(C(=O)O)N2C1=O (stereo not drawn) [Compound C, 2-Ethyl-2,3,5,8-tetrahydro-2-(2-mercaptoethyl)-1,3-dioxo-1H-pyrazolo-[1,2-a]pyridazine-5-carboxylic acid]",43

# — patent US4399136A, “Pyrazolopyridazine antihypertensives” (Hoffmann-La Roche Inc., priority 1980, dated 1983)
